In patent US20030086873A1, “Myocardial imaging agent and preparation method thereof” (priority 2001, published 2003):

What was measured:
Assay type in all cases: in vivo
[1] = Biological distribution in the bodies of Kunming mice after caudal vein injection
Description: The complexes [^99mTc(CO)3(OH2)3]^+ and [^99mTc(CO)3(MIBI)3]^+ prepared in Example 1 were separately injected in the caudal vein of Kunming mice. The experiment was conducted on three mice within each time period, and the injection's activity was 925 KBq. The radioactivity of individual organs's tissue was measured at 5, 15, 30, and 60 minutes after the injection, and the results are represented by radioactive uptake rate per gram of tissue.
The results of the distribution of [^99mTc(CO)3(OH2)3]^+ in the mice's bodies are included in Tables 2; the results for [^99mTc(CO)3(MIBI)3]^+ are presented in Table 3. The value “% ID/g” is the percentage of the injection's total radioactivity that each gram of tissue accounts for i.e., the radioactive uptake rate per gram of tissue, with ID standing for “injected dose.”

[2] = Dynamic SPECT imaging and biological distribution in dogs after intravenous injection; conditions: for Heart biological distribution / Kidneys biological distribution / Liver biological distribution / Lungs biological distribution: i.v.
Description: (§1) Dogs were intravenously injected with [^99mTc(CO)3(MIBI)3]^+ or [^99mTc(MIBI)6][…]at dose of […]. Immediately following injection, dynamic photography for up to 120 min was performed using a Toshiba GCA 7200A two-probe SPECT and a low energy parallel aperture regular collimator. Time—radioactivity curves were also collected for the heart, liver, lungs, and kidneys. Target/non-target radioactivity ratios were calculated, and fall body imaging was performed separately at different times. The biological distributions of the imaging agents in the body were analyzed. Vein blood samples were collected separately at different times, and the dynamics of the blood clearance was analyzed. Flat myocardial imaging was conducted separately at different times, with myocardial tomographic imaging at 120 minutes post injection.

[3] = Blood clearance kinetics in dogs (vein blood samples); conditions: intravenous administration, secondary model
Description: as §1

Target/Non-Target Uptake Ratio Heart/Blood ([1]; 5 Minutes): 20.99 | Target/Non-Target Uptake Ratio Heart/Liver ([1]; 5 Minutes): 1.88 | Target/Non-Target Uptake Ratio Heart/Lungs ([1]; 5 Minutes): 3.51 | Blood radioactive uptake per gram of tissue ([1]; 5 Minutes after injection): 1.03 ± 0.21 % ID/g | Bones radioactive uptake per gram of tissue ([1]; 5 Minutes after injection): 3.72 ± 0.84 % ID/g | Brain radioactive uptake per gram of tissue ([1]; 5 Minutes after injection): 0.18 ± 0.02 % ID/g | Heart radioactive uptake per gram of tissue ([1]; 5 Minutes after injection): 21.62 ± 2.84 % ID/g | Kidneys radioactive uptake per gram of tissue ([1]; 5 Minutes after injection): 57.90 ± 1.80 % ID/g | Liver radioactive uptake per gram of tissue ([1]; 5 Minutes after injection): 11.48 ± 0.88 % ID/g | Lungs radioactive uptake per gram of tissue ([1]; 5 Minutes after injection): 6.16 ± 0.48 % ID/g | Muscles radioactive uptake per gram of tissue ([1]; 5 Minutes after injection): 7.08 ± 0.52 % ID/g | Spleen radioactive uptake per gram of tissue ([1]; 5 Minutes after injection): 6.26 ± 1.29 % ID/g | Target/Non-Target Uptake Ratio Heart/Blood ([1]; 15 Minutes): 64.47 | Target/Non-Target Uptake Ratio Heart/Liver ([1]; 15 Minutes): 2.49 | Target/Non-Target Uptake Ratio Heart/Lungs ([1]; 15 Minutes): 4.98 | Blood radioactive uptake per gram of tissue ([1]; 15 Minutes after injection): 0.32 ± 0.05 % ID/g | Bones radioactive uptake per gram of tissue ([1]; 15 Minutes after injection): 2.10 ± 0.10 % ID/g | Brain radioactive uptake per gram of tissue ([1]; 15 Minutes after injection): 0.18 ± 0.02 % ID/g | Heart radioactive uptake per gram of tissue ([1]; 15 Minutes after injection): 20.63 ± 3.89 % ID/g | Kidneys radioactive uptake per gram of tissue ([1]; 15 Minutes after injection): 33.66 ± 0.42 % ID/g | Liver radioactive uptake per gram of tissue ([1]; 15 Minutes after injection): 8.28 ± 0.90 % ID/g | Lungs radioactive uptake per gram of tissue ([1]; 15 Minutes after injection): 4.14 ± 0.90 % ID/g | Muscles radioactive uptake per gram of tissue ([1]; 15 Minutes after injection): 3.78 ± 0.88 % ID/g | Spleen radioactive uptake per gram of tissue ([1]; 15 Minutes after injection): 3.84 ± 0.90 % ID/g | Target/Non-Target Uptake Ratio Heart/Blood ([1]; 30 Minutes): 86.54 | Target/Non-Target Uptake Ratio Heart/Liver ([1]; 30 Minutes): 3.23 | Target/Non-Target Uptake Ratio Heart/Lungs ([1]; 30 Minutes): 5.34 | Blood radioactive uptake per gram of tissue ([1]; 30 Minutes after injection): 0.24 ± 0.07 % ID/g | Bones radioactive uptake per gram of tissue ([1]; 30 Minutes after injection): 1.94 ± 0.29 % ID/g | Brain radioactive uptake per gram of tissue ([1]; 30 Minutes after injection): 0.12 ± 0.01 % ID/g | Heart radioactive uptake per gram of tissue ([1]; 30 Minutes after injection): 20.77 ± 1.60 % ID/g | Kidneys radioactive uptake per gram of tissue ([1]; 30 Minutes after injection): 23.94 ± 2.11 % ID/g | Liver radioactive uptake per gram of tissue ([1]; 30 Minutes after injection): 6.44 ± 1.03 % ID/g | Lungs radioactive uptake per gram of tissue ([1]; 30 Minutes after injection): 3.89 ± 0.54 % ID/g | Muscles radioactive uptake per gram of tissue ([1]; 30 Minutes after injection): 6.14 ± 0.78 % ID/g | Spleen radioactive uptake per gram of tissue ([1]; 30 Minutes after injection): 2.84 ± 0.41 % ID/g | Target/Non-Target Uptake Ratio Heart/Blood ([1]; 60 Minutes): 149.15 | Target/Non-Target Uptake Ratio Heart/Liver ([1]; 60 Minutes): 4.13 | Target/Non-Target Uptake Ratio Heart/Lungs ([1]; 60 Minutes): 6.06 | Blood radioactive uptake per gram of tissue ([1]; 60 Minutes after injection): 0.13 ± 0.04 % ID/g | Bones radioactive uptake per gram of tissue ([1]; 60 Minutes after injection): 1.42 ± 0.31 % ID/g | Brain radioactive uptake per gram of tissue ([1]; 60 Minutes after injection): 0.08 ± 0.01 % ID/g | Heart radioactive uptake per gram of tissue ([1]; 60 Minutes after injection): 19.39 ± 0.91 % ID/g | Kidneys radioactive uptake per gram of tissue ([1]; 60 Minutes after injection): 11.30 ± 0.73 % ID/g | Liver radioactive uptake per gram of tissue ([1]; 60 Minutes after injection): 4.69 ± 0.34 % ID/g | Lungs radioactive uptake per gram of tissue ([1]; 60 Minutes after injection): 3.20 ± 0.85 % ID/g | Muscles radioactive uptake per gram of tissue ([1]; 60 Minutes after injection): 4.42 ± 0.36 % ID/g | Spleen radioactive uptake per gram of tissue ([1]; 60 Minutes after injection): 1.62 ± 0.32 % ID/g | Concentration in livers ([1]; in words): comparatively low | Specific concentration in tissues / heart ([1]; in words): apparent concentration | heart:blood ratio compared with [^99mTc(MIBI)6]^+ ([1]; in words): comparable | heart:liver ratio compared with [^99mTc(MIBI)6]^+ ([1]; in words): higher | Radioactive retention ([1]; within 60 minutes, in words): good radioactive retention | Target/Non-Target Uptake Ratio Heart/Kidneys ([2]; 2 Minutes): 0.56 ± 0.13 | Target/Non-Target Uptake Ratio Heart/Liver ([2]; 2 Minutes): 1 ± 0.18 | Target/Non-Target Uptake Ratio Heart/Lungs ([2]; 2 Minutes): 2.51 ± 0.25 | Target/Non-Target Uptake Ratio Heart/Kidneys ([2]; 5 Minutes): 0.53 ± 0.12 | Target/Non-Target Uptake Ratio Heart/Liver ([2]; 5 Minutes): 0.98 ± 0.11 | Target/Non-Target Uptake Ratio Heart/Lungs ([2]; 5 Minutes): 2.67 ± 0.27 | Target/Non-Target Uptake Ratio Heart/Kidneys ([2]; 10 Minutes): 0.53 ± 0.1 | Target/Non-Target Uptake Ratio Heart/Liver ([2]; 10 Minutes): 0.92 ± 0.13 | Target/Non-Target Uptake Ratio Heart/Lungs ([2]; 10 Minutes): 2.6 ± 0.26 | Target/Non-Target Uptake Ratio Heart/Kidneys ([2]; 20 Minutes): 0.59 ± 0.1 | Target/Non-Target Uptake Ratio Heart/Liver ([2]; 20 Minutes): 0.97 ± 0.1 | Target/Non-Target Uptake Ratio Heart/Lungs ([2]; 20 Minutes): 2.8 ± 0.44 | Target/Non-Target Uptake Ratio Heart/Kidneys ([2]; 30 Minutes): 0.62 ± 0.15 | Target/Non-Target Uptake Ratio Heart/Liver ([2]; 30 Minutes): 1.02 ± 0.11 | Target/Non-Target Uptake Ratio Heart/Lungs ([2]; 30 Minutes): 2.96 ± 0.43 | Target/Non-Target Uptake Ratio Heart/Kidneys ([2]; 40 Minutes): 0.58 ± 0.08 | Target/Non-Target Uptake Ratio Heart/Liver ([2]; 40 Minutes): 1.06 ± 0.17 | Target/Non-Target Uptake Ratio Heart/Lungs ([2]; 40 Minutes): 3 ± 0.51 | Target/Non-Target Uptake Ratio Heart/Kidneys ([2]; 60 Minutes): 0.6 ± 0.06 | Target/Non-Target Uptake Ratio Heart/Liver ([2]; 60 Minutes): 1.22 ± 0.2 | Target/Non-Target Uptake Ratio Heart/Lungs ([2]; 60 Minutes): 3.05 ± 0.52 | Target/Non-Target Uptake Ratio Heart/Kidneys ([2]; 90 Minutes): 0.6 ± 0.06 | Target/Non-Target Uptake Ratio Heart/Liver ([2]; 90 Minutes): 1.25 ± 0.33 | Target/Non-Target Uptake Ratio Heart/Lungs ([2]; 90 Minutes): 3.1 ± 0.49 | Target/Non-Target Uptake Ratio Heart/Kidneys ([2]; 120 Minutes): 0.63 ± 0.04 | Target/Non-Target Uptake Ratio Heart/Liver ([2]; 120 Minutes): 1.37 ± 0.26 | Target/Non-Target Uptake Ratio Heart/Lungs ([2]; 120 Minutes): 3.09 ± 0.56 | Heart biological distribution ([2]; 10 Minutes): 3.80 ± 0.44 % ID/g | Kidneys biological distribution ([2]; 10 Minutes): 15.33 ± 0.75 % ID/g | Liver biological distribution ([2]; 10 Minutes): 12.93 ± 0.70 % ID/g | Lungs biological distribution ([2]; 10 Minutes): 5.13 ± 0.06 % ID/g | Heart biological distribution ([2]; 20 Minutes): 3.97 ± 0.50 % ID/g | Kidneys biological distribution ([2]; 20 Minutes): 14.70 ± 1.14 % ID/g | Liver biological distribution ([2]; 20 Minutes): 14.00 ± 1.78 % ID/g | Lungs biological distribution ([2]; 20 Minutes): 4.70 ± 0.20 % ID/g | Heart biological distribution ([2]; 30 Minutes): 4.00 ± 0.30 % ID/g | Kidneys biological distribution ([2]; 30 Minutes): 14.53 ± 1.86 % ID/g | Liver biological distribution ([2]; 30 Minutes): 14.27 ± 1.97 % ID/g | Lungs biological distribution ([2]; 30 Minutes): 4.70 ± 0.26 % ID/g | Heart biological distribution ([2]; 40 Minutes): 3.73 ± 0.51 % ID/g | Kidneys biological distribution ([2]; 40 Minutes): 13.27 ± 1.65 % ID/g | Liver biological distribution ([2]; 40 Minutes): 16.37 ± 2.47 % ID/g | Lungs biological distribution ([2]; 40 Minutes): 4.80 ± 0.72 % ID/g | Heart biological distribution ([2]; 60 Minutes): 3.63 ± 0.49 % ID/g | Kidneys biological distribution ([2]; 60 Minutes): 12.23 ± 1.00 % ID/g | Liver biological distribution ([2]; 60 Minutes): 17.53 ± 2.85 % ID/g | Lungs biological distribution ([2]; 60 Minutes): 4.40 ± 0.44 % ID/g | Heart biological distribution ([2]; 90 Minutes): 3.77 ± 0.64 % ID/g | Kidneys biological distribution ([2]; 90 Minutes): 12.37 ± 1.75 % ID/g | Liver biological distribution ([2]; 90 Minutes): 19.67 ± 3.72 % ID/g | Lungs biological distribution ([2]; 90 Minutes): 4.20 ± 0.26 % ID/g | Heart biological distribution ([2]; 120 Minutes): 3.73 ± 0.58 % ID/g | Kidneys biological distribution ([2]; 120 Minutes): 12.40 ± 3.48 % ID/g | Liver biological distribution ([2]; 120 Minutes): 21.03 ± 2.78 % ID/g | Lungs biological distribution ([2]; 120 Minutes): 4.07 ± 0.15 % ID/g | Radioactivity in the liver compared with [^99mTc(MIBI)6]^+ ([2]; imaging, in words): clearly lower | Liver time-radioactivity curve relative to the myocardial curve ([2]; in words): lower than the myocardial curve | CL (blood clearance) [3]: 401.33 ± 73.51 mL/h | T(α)⅓ of blood clearance curve [3]: 1.33 ± 0.12 min | T(β)½ of blood clearance curve [3]: 102.33 ± 25.58 min
Structure (SMILES): COC(C)(C)CN=[C]=[99Tc+](=[C]=O)(=[C]=O)(=[C]=O)(=[C]=NCC(C)(C)OC)=[C]=NCC(C)(C)OC [[^99mTc(CO)3(MIBI)3]^+]
